Source: PMC10831786 (Virus Research, 2024)

Legend:
[1] = test system: protein synthesis in Vero E6 cells; experiment: Puromycin pulse labeling, protein synthesis in cultured Vero E6 cells; type: cell-based, African green monkey
Experimental: Vero E6 cells were seeded at 30,000 cells per cm^2 in 6-well plates. […] Control experiments were conducted in medium alone and medium containing cycloheximide or DMSO. After 12 min, cells were washed with 37° PBS and then allowed to recover in drug-free 2 % FBS-EMEM for 30 min. Cell pellets, collected by trypsinization and centrifugation for 5 min at 5 000 rpm at 4 °C, were re-suspended in ice-cold PBS and centrifugation was repeated. Collected cells were stored at −80 °C.
Antibodies used were anti-puromycin monoclonal (TFS; MABE34), goat anti-mouse-HRP (TFS, Invitrogen; G21040), rabbit anti-β-actin (Cell Signaling, 4967S, lot 9) and HRP-conjugated goat-anti-rabbit (Cell Signaling, 7074S, lot 27). Protein extract and immunoblotting methods were done by standard methods reported here as Supplementary Information.
Vero E6 cells were seeded at 30,000 cells per cm^2 in 6-well plates. […] Puromycin labelling protocols have been well established by other laboratories and a general review of the methods has been published^79. Control experiments were conducted in medium alone and medium containing cycloheximide or DMSO. Following incubation with puromycin for 12 min, the medium was quickly removed and cells were washed with warm PBS and then allowed to recover in drug-free 2% FBS-EMEM for 30 min. Cell pellets, collected by trypsinization and centrifugation for 5 min at 5 000 rpm at 4°C, were re-suspended in ice-cold PBS and the centrifugation was repeated. Collected cells were stored at -80°C until subjected to the protein preparation as noted below.
Defrosted cell pellets were re-suspended in 120 µl of RIPA (radio-immunoprecipitation) buffer (Sigma; R0278) containing 7 µl of protease inhibitors (Sigma; P8340). Samples were incubated on ice for 40 min with occasional gentle mixing. Cell debris was removed by a 20 min centrifugation at 16,000 g at 4°C and supernatants were stored at -80°C. Protein was measured by the Pierce^TM bicinchoninic acid (BCA) assay (Thermo Fisher Scientific [TFS], MA, USA; 23250), using bovine serum albumin as a standard, according to protocols recommended by the manufacturer.
For immunoblotting, 10 µg of protein was combined with Laemmli buffer containing 10% β-mercaptoethanol, heated at 95°C for 5 min and loaded on 4-20% Mini-PROTEAN® TGX™ precast protein gels. Samples were resolved by electrophoresis in Tris-Gly-SDS buffer and transferred to nitrocellulose membranes. Transfer was conducted in Tris-Gly buffer containing 20% methanol at 4-6 V/cm^2 for one hour. Membranes were blocked in 10 mM sodium phosphate buffer containing 150 mM NaCl (pH 7.8), 5% milk and 0.1% TWEEN20 (PBST) at room temperature for at least one hour, and then incubated overnight with primary anti-puromycin antibodies (TFS; MABE343 mouse monoclonal antibodies clone 12D10; 1:12,500) at 4°C. Membranes were washed for five minutes three times in PBST and incubated with secondary goat anti-mouse horseradish peroxidase (HRP) -conjugated antibodies (TFS, Invitrogen; G21040; 1:25,000) for 90 min. After three more rounds of washing as above, membranes were incubated with an HRP substrate (TFS; 34077) for one minute and chemoluminescence was visualized by exposing membranes to film for 1, 2, 5, 10 and 30 min.
For β-actin staining, the same membranes used for puromycin immunostaining were washed four times, 5 min each, in 20 mM Tris-buffered saline containing 500 mM sodium chloride (pH 7.5) and 0.1% TWEEN20 (TBST) and stripped by two rounds of 20 and 10 min washes at 50°C in glycine buffer (pH 2.2) containing 0.1 % SDS (W/V) and 1% TWEEN20. Membranes were then washed at room temperature with PBS (3x10 min) and PBST (2x5min). Blocking, primary (1:4,000) and secondary (1:5,000) antibody staining was conducted as above. Primary rabbit anti-β-actin antibodies were obtained from Cell Signaling (4967S, lot 9) and secondary HRP-conjugated goat-anti-rabbit antibodies were from the same company (7074S, lot 27). […]

[2] = biological target: protein synthesis in rabbit reticulocyte lysate; experiment: Inhibition of protein synthesis in rabbit reticulocyte lysates (luciferase mRNA translation); type: biochemical
Experimental: The TnT® Quick Coupled Transcription/Translation System from Promega (WI, USA; L1170) was used to evaluate inhibitory effects of ipecac alkaloids and cycloheximide on protein synthesis. Assay conditions were employed as recommended by the manufacturer. Briefly, reactions (20 μl) contained 80 % TNT Quick master mix, 20 µM methionine, 40 ng/µL luciferase RNA (Promega; L4561), and test chemicals. Samples were incubated at 30 °C for 90 min and diluted 10-fold with PBS. An aliquot (2 μl) was mixed with 20 μl of luciferase assay reagent (Promega; E1500) and luminescence was measured with a Turner Designs luminometer (model TD-20/20).

HCoV-OC43 = experiment: Antiviral activity against HCoV-OC43 in Vero E6 cells (RT-qPCR of N-gene); type: cell-based
Experimental: Vero E6 cells (∼5 × 10^4 cells/cm^2 in 24-well plates) were infected with […] at MOI of 20 genomes per cell in 2 % FBS-EMEM at 33 °C, 5 % CO2 with gently mixing for 2 h. Infection medium was removed, cells were washed with fresh medium followed by the addition of compounds at indicated concentrations in 2 % FBS-EMEM. After 72 h, 100 µL of medium was collected and stored at −80 °C for viral RNA isolation and RT-qPCR analysis as detailed below. Drugs were added to the medium prior to and after viral absorption for comparison.
HCoV-OC43 RNA was isolated from 100 µL of medium using Quick-RNA Viral Kit-DX (Zymo Research, CA, USA; R1035). The relative amount of viral genomic RNA was determined with Luna Universal One-Step RT-qPCR Kit (New England Biolabs, MA, USA; E3005). […]
RT-qPCR cycles were set for 20 min at 55 °C, 1 min at 95 °C followed by 45 cycles of 95 °C for 10 s, 48 °C for 30 s and 60 °C for 1 min. The threshold cycle (Ct) for each sample was determined using the Opticon Monitor 3 Program (BioRad). Drug effects on viral propagation were evaluated assuming that a difference of one cycle corresponds to a two-fold difference in the number of copies of viral RNA. Ct values obtained for drug-free samples were considered as 100 % viral propagation.

[3] = MTS assay, growth inhibition and toxicity in non-infected Vero E6 cells; type: cell-based, African green monkey; conditions: African green monkey, non-infected Vero E6 cells, MTS, 72 h; read-out: Fifty percent effect (CC50) in non-infected Vero E6
Experimental: Detailed methods are provided in Supplementary Information.
Vero E6 and BEC-hACE2 cells were grown to 70-80% density in their maintenance media and exposed to various concentrations of ipecac alkaloids (0.0125 – 200 µM) under standard culture conditions for 48-72 h and 24 h, respectively. Controls with varying amounts of DMSO and no DMSO were included also. Vero E6 cells were incubated with drugs in 2% FBS-EMEM, while BEC-HACE2 cells were grown and treated in complete PCS-300-03 medium with supplements. Similar treatments were also conducted using fully confluent non-growing BEC-hACE2 cells. At the end of the exposure period, MTS reagent (Promega G3580) was added at 1/5th of the medium volume and color was allowed to develop by incubation of the plates for an hour in a cell culture incubator. To stop reactions, SDS was added to a final concentration of 2% and optical density of samples was measured at 450 or 490 nm, depending on the model of spectrophotometer (PharmaciaBiotech, NJ, USA; UV spectrophotometer, model Ultrospec2000) or plate reader (Molecular Devices, CA, USA; model Filter Max F5 Multi-mode microplate reader) available at the time of experiment.

SMILES	IC50 ([1]; Chlorocebus sabaeus, Vero C1008, Vero E6 cells, 1 h exposure, puromycin labeling, read-out: 50 % inhibitory activities, protein synthesis) [nM]	IC50 ([2]; luciferase mRNA, 30 °C, 90 min) [nM]	IC50 (HCoV-OC43; Betacoronavirus 1, OC43, Vero C1008, Vero E6, drug added after viral absorption, 72 hpi, read-out: Antiviral IC50) [nM]	Selectivity index, (SI) CC50/IC50 (HCoV-OC43; HCoV-OC43, Vero E6, 72 hpi)	Protein synthesis,% ([1]; Vero E6, 0.1 μM) [%]	Protein synthesis, puromycilation signal ([1]; Vero E6, >1 μM)	Concentration above which inhibition of puromycilation is not sustained ([1]; Vero E6 cells) [µM]	Efficiency as protein synthesis inhibitors ([1]; cultured cells, puromycin labeling)	CC50 at 72 h [3] [nM]	Inhibitory effects on translation in rabbit reticulocyte lysate ([2]; concentration range 0.1 - 100 μM)	IC50, protein synthesis inhibition in rabbit reticulocyte lysate ([2]; luciferase mRNA, 30 °C, 90 min)
C[C@@H]1C[C@@H]([C@H](O)CC2CC(=O)NC(=O)C2)C(=O)[C@@H](C)C1 [CHX, Cycloheximide, reference compound]	~30	31									
CCC1=C(C[C@@H]2NCCc3cc(OC)c(OC)cc32)C[C@@H]2c3cc(OC)c(OC)cc3CCN2C1 [DHE1, 4H-Benzo[a]quinolizine, 3-ethyl-1,6,7,11b-tetrahydro-9,10-dimethoxy-2-[[(1S)-1,2,3,4-tetrahydro-6,7-dimethoxy-1-isoquinolinyl]methyl]-, (11bR)-]			1030 ± 446	188	0	signal increase	> 1	inefficient as protein synthesis inhibitors	193000 ± 63600	no inhibitory effects	Not active
